Patent publication US7037914B2, “Carboxylic acid derivative and a pharmaceutical composition containing the derivative as active ingredient” (Ono Pharmaceutical Co., Ltd., priority 1998, dated 2006)

Key:
[1] = target: T1, human PPAR α (Homo sapiens, UniProt Q07869); test: Luciferase assay using human PPAR α (Gal4-PPAR chimeric receptor in CV-1 cells); assay type: cell-based; conditions: compound 0.3 μM; luciferase activity of carbaprostacylin 10 μM defined as 1.0
T1 construct: expressed in transfected cells; host or cells: CV-1 cells
T1 sequence (Q07869 167-468): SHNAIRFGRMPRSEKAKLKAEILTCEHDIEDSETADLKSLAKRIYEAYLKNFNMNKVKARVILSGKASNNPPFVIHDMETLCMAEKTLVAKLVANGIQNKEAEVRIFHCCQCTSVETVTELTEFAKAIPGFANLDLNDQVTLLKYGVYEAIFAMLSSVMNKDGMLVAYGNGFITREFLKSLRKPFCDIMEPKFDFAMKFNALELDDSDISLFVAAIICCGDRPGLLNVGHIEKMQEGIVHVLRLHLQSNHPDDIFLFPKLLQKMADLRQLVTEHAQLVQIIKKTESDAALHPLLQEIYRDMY

[2] = target: T2, human PPAR δ (Homo sapiens, UniProt Q03181); test: Luciferase assay using human PPAR δ (Gal4-PPAR chimeric receptor in CV-1 cells); assay type: cell-based; conditions: luciferase activity with solvent containing no compound defined as 1.0
T2 construct: expressed in transfected cells; host or cells: CV-1 cells
T2 sequence (Q03181 139-441): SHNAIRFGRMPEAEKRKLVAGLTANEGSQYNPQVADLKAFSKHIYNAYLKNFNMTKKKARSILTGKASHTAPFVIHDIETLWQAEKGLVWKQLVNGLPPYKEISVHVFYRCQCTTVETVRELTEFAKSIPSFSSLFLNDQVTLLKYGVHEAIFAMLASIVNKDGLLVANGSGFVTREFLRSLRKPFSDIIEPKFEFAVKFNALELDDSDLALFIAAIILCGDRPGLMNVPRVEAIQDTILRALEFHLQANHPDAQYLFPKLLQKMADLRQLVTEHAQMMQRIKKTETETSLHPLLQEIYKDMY

[3] = tested on: SD rats; test: Hypocholesterolemic and hypolipidemic effects in normal rats; assay type: in vivo; conditions: 10 mg/kg orally, hypercholesterolemic food, blood sampled next day
Excerpt: Hypocholesterolemic and hypolipidemic effects in normal rats:
Male, six-weeks old SD rats (seven rats per group) were left to take milled diet and water ad libitum and were acclimatized for 1 week.
At 9:00 on the first day of the experiment (Day 0) blood sampling was done from tail vein. The rats were divided into some groups by body weight, triglyceride(TG), non-esterified fatty acid (NEFA), total cholesterol (TC) values to minimize differences of the parameters among the groups. At 17:00 of the day the compound of the present invention suspended in 0.5% aqueous solution of carboxymethylcellulose (CMC) was orally administered at a dose of 10 mg/kg, and thereafter, with hypercholesterolemic food (5.5% peanut oil, 1.5% cholesterol and 0.5% cholic acid were mixed with milled CRF-1 diet, Charles River Inc.) was given to the rats.
At 9:00 of the next day, blood sampling was done from tail vein. The lipid values in blood (TG, NEFA and TC values) were measured.
There was no significant difference of the food intake between the control group (provided only 0.5% CMC) and the group treated with the compounds of the present invention.

[4] = target: T3, human PPAR γ (Homo sapiens, UniProt P37231); test: Luciferase assay using human PPAR γ (Gal4-PPAR chimeric receptor in CV-1 cells); assay type: cell-based; conditions: compound 1.0 μM; luciferase activity of troglitazone 10 μM defined as 1.0
T3 construct: expressed in transfected cells; host or cells: CV-1 cells
T3 sequence (P37231 176-477 isoform P37231-2): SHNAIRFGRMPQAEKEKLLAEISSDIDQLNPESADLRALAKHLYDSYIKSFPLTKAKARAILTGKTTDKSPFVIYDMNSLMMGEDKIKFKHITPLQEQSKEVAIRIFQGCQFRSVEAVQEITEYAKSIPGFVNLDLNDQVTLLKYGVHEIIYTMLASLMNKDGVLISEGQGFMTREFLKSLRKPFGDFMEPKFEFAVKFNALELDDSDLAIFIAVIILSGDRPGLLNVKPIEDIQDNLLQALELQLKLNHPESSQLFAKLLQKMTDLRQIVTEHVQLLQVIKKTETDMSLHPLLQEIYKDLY

[5] = tested on: KKAy/Ta mice; test: Hypoglycemic and hypolipidemic effects in KKAy mice; assay type: in vivo; conditions: 3 days, food containing 0.03 % (w/w) compound, 38.9 mg/kg/day (converted)
Excerpt: Hypoglycemic and hypolipidemic effects in KKAy mice:
Male, 7-weeks old KKAy/Ta mice weighed from […] (seven mice per group) were pre-breaded for approximately one week and acclimatized for three days on milled diet. On the first day of the experiment (Day 0), mice were divided into some groups by weight, plasma glucose and triglyceride (TG) levels to minimize the differences among groups. From the next day for two days they were given compounds by food mixture containing 0.03 % (w/w) of the compound of the present invention or by milled diet only. At 13:00 of the third day, blood samples were collected and glucose and TG were measured. Additionally, there was no significant difference in the food intake between control group (milled diet only) and compounds-treated group (milled diet containing 0.03 % compounds).

`Cc1oc(-c2ccccc2)nc1CCOc1cccc(CCCC(=O)O)c1` [Example 2 (5), 4-(3-(2-(5-methyl-2-phenyloxazol-4-yl)ethoxy)phenyl)butanoic acid] was tested, and the “PPAR α agonist activity, Relative Activity” value [1] was 0.8.

In the case of `Cc1oc(-c2ccc3c(c2)OCO3)nc1CCOc1cccc(CC(=O)O)c1` [Example 2 (93), 2-(3-(2-(5-methyl-2-(1,3-dioxaindan-5-yl)oxazol-4-yl)ethoxy)phenyl)acetic acid], the “PPAR δ agonist activity, relative activity” value ([2]; concentration 1.0 μM) is reported as 36.1 and the “PPAR δ agonist activity, relative activity” value ([2]; concentration 10.0 μM) is reported as 54.7.

For `O=C(O)CSCc1cccc(OCc2ccc(-c3ccccc3)cc2)c1` [Example 2 (11), 2-(3-(biphenyl-4-ylmethoxy)phenylmethylthio)acetic acid], the “PPAR α agonist activity, Relative Activity” value [1] was 3.2.

In the case of `Cc1oc(-c2ccccc2)nc1CCOc1cccc(CSCC(=O)O)c1` [Example 2 (12), 2-(3-(2-(5-methyl-2-phenyloxazol-4-yl)ethoxy)phenylmethylthio)acetic acid], the TG value ([3]; control 147 ± 9) is reported as 100 ± 14 mg/dL, the TC value ([3]; control 188 ± 5) is reported as 70 ± 5 mg/dL and the NEFA value ([3]; control 489 ± 66) is reported as 178 ± 14 μEq/l. For the same compound, the “PPAR γ agonist activity, Relative Activity” value [4] was 1.4, the “PPAR α agonist activity, Relative Activity” value [1] was 1.7 and the glycemic value ([5]; control 495 ± 35) was 214 ± 19 mg/dL. It also gave a TG value ([5]; control 558 ± 107) of 221 ± 66 mg/dL.

In the case of `Cc1oc(-c2ccccc2)nc1CCOc1cccc(CC(=O)O)c1` [Example 2 (22)], the “PPAR δ agonist activity, relative activity” value ([2]; concentration 1.0 μM) is reported as 9.3 and the “PPAR δ agonist activity, relative activity” value ([2]; concentration 10.0 μM) is reported as 66.7.
